Measurements reported in US4273923A, “Process for preparing aminoglycoside derivatives” (Shionogi & Co., Ltd., priority 1979, dated 1981).
Converted amounts (≈) assume the structure as drawn.

Key:
[1] = tested on: Proteus morganii Morg. 96; experiment: MIC by agar dilution method; details: Morganella morganii, MORG.96, 20 h, read-out: Minimum Inhibitory Concentration (MIC)
Description: (§1) MIC was determined by the following agar dilution method:
(§2) One loopful of a strain of bacteria to be tested on agar slant was inoculated into a medium for growth of inoculum (Trypto Soy Broth; Eiken Chemical Co.) and incubated at 37° C. overnight.
(§3) (2) Preparation of medium for antibacterial activity test
(§4) A sample solution of aminoglycoside derivative was subjected to serial two-fold dilutions with sterile water. These diluted sample solutions were distributed to the Modified Mueller Hinton Agar medium (Nissui-Seiyaku Co.), mixed gently and allowed to solidify.
(§5) One loopful of the bacterial suspension prepared in (1) was placed on the surface of the medium prepared in (2) containing the aminoglycoside derivative in various concentrations at 10^6 CFU/ml inoculum size.

[2] = tested on: Staphylococcus epidermidis TB-302; experiment: MIC by agar dilution method; type: cell-based; details: TB302, innoculum size 10^4 CFU/ml, 37° C., 18 to 20 hours, read-out: Minimum Inhibitory Concentration (MIC)
Source text: (1) Preparation of bacterial suspensions
(3) Determination of MIC values

[3] = tested on: Escherichia coli W-677/JR 762; experiment: MIC by agar dilution method; details: W677/JR762, 20 h, read-out: Minimum Inhibitory Concentration (MIC)
Description: as §1, §2, §3, §4, §5

[4] = tested on: Klebsiella pneumoniae Kl-168; experiment: MIC by agar dilution method; details: KL168, 20 h, read-out: Minimum Inhibitory Concentration (MIC)
Description: as §1, §2, §3, §4, §5

[5] = compared with kanamycin A; cited from earlier work

SMILES | MIC [1] [µg/mL] | MIC [2] [µg/mL] | MIC [3] [µg/mL] | MIC [4] [µg/mL] | antimicrobial activity [5]
NC[C@H]1O[C@H](O[C@H]2[C@H](O)[C@@H](O[C@H]3O[C@H](CO)[C@@H](O)[C@H](N)[C@H]3O)[C@H](N)C[C@@H]2N)[C@H](N)C[C@@H]1O [TOB, tobramycin] | 25 (≈ 53.5 µM) | 3.1 (≈ 6.63 µM) | 50 (≈ 107 µM) | 100 (≈ 214 µM) | –
NCC[C@H](O)C(=O)N[C@@H]1C[C@H](N)[C@@H](O[C@H]2O[C@H](CN)[C@@H](O)[C@H](O)[C@H]2O)[C@H](O)[C@H]1O[C@H]1O[C@H](CO)[C@@H](O)[C@H](N)[C@H]1O [amikacin] | – | – | – | – | more potent than kanamycin A
NCC1=CC[C@@H](N)[C@@H](O[C@H]2[C@H](O)[C@@H](O[C@H]3O[C@H](CO)[C@@H](O)[C@H](N)[C@H]3O)[C@H](N)C[C@@H]2N)O1 [[A], O-[3-amino-3-deoxy-α-D-glucopyranosyl-(1→6)]-O-[2,6-diamino-2,3,4,6-tetradeoxy-α-D-glycero-hex-4-enopyranosyl-(1→4)]-2-deoxy-D-streptamine] | 12.5 (≈ 27.8 µM) | 0.2 (≈ 0.445 µM) | 12.5 (≈ 27.8 µM) | 50 (≈ 111 µM) | –
